Data reported in patent US11512053B2, “Arginine methyltransferase inhibitors and uses thereof” (priority 2013, dated 2022).

Target: T1, human CARM1 (PRMT4) (Flag- and His-tagged) (Homo sapiens, UniProt Q86X55)
T1 construct: Flag-CARM1-His; made in house; host or cells: HEK 293F cells (BacMam baculovirus)
T1 sequence (Q86X55 1-585 isoform Q86X55-1): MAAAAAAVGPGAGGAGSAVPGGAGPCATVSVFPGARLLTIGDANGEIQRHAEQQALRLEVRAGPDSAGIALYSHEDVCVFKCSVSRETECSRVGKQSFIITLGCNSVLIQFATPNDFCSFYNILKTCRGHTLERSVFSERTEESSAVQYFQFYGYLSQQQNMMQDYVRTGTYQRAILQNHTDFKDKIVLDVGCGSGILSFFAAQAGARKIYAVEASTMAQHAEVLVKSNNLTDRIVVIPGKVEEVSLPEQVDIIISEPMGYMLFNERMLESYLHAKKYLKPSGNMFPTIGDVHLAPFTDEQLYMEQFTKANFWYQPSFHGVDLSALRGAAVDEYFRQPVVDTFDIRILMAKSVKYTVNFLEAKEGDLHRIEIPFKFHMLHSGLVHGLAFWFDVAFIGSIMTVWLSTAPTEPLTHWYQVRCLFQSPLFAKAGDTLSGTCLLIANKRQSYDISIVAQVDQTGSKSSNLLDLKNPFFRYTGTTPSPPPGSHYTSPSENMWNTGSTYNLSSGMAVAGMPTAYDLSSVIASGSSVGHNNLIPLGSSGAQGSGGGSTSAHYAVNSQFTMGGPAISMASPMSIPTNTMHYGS
Assay: CARM1 Biochemical Assay (3H-SAM Flashplate, peptide substrate)
Settings: single experiment or average of multiple experiments
Excerpt: General Materials. S-adenosylmethionine (SAM), S-adenosylhomocysteine (SAH), bicine, Tween20, dimethylsulfoxide (DMSO), bovine skin gelatin (BSG), sodium butyrate and Tris(2-carboxyethyl)phosphine hydrochloride solution (TCEP) were purchased from Sigma-Aldrich at the highest level of purity possible. ^3H-SAM was purchase from American Radiolabeled Chemicals with a specific activity of 80 Ci/mmol. 384-well streptavidin Flashplates were purchased from PerkinElmer.
Substrates. Peptide representative of human histone H3 residues 16-30 was synthesized with an N-terminal linker-affinity tag motif and a C-terminal amide cap by 21st Century Biochemicals. The peptide was purified by high-performance liquid chromatography (HPLC) to greater than 95% purity and confirmed by liquid chromatography mass spectrometry (LC-MS). The sequence was Biot-Ahx-[…]-amide and contained a monomethylated arginine at position 26 (SEQ ID NO.:14).
Molecular Biology: Human CARM1 (PRMT4) (NM_199141.1) transcript clone was amplified from an HEK 293 cDNA library, incorporating a flanking 5′ sequence encoding a FLAG tag ([…]) (SEQ ID NO.:6) fused directly to Ala 2 of CARM1 and 3′ sequence encoding a hexa His sequence ([…]) (SEQ ID NO.:15) fused directly to Ser 608. The gene sequence encoding isoform1 containing a deletion of amino acids 539-561 was amplified subsequently and subcloned into pFastBacMam (Viva Biotech).
Protein Expression. Recombinant baculovirus were generated according to Bac-to-Bac kit instructions (Life Technologies). […] Infections were carried out at 37° C. for 48 hours, harvested by centrifugation, and stored at −80° C. for purification.
Protein Purification. […] Column was washed with 500 mM NaCl in buffer A and Flag-CARM1-His was eluted with 200 ug/ml FLAG peptide in buffer A. Pooled fractions were dialyzed in 20 mM Tris, 150 mM NaCl, 5% glycerol and 1 mM DTT, pH 7.8. The purity of recovered protein was 94.
General Procedure for CARM1 Enzyme Assays on Peptide Substrates. The assays were all performed in a buffer consisting of 20 mM Bicine (pH=7.6), 1 mM TCEP, 0.005% BSG, and 0.002% Tween 20, prepared on the day of use. Compounds in 100% DMSO (1 ul) were spotted into a polypropylene 384-well V-bottom plates (Greiner) using a Platemate Plus outfitted with a 384-channel head (Thermo Scientific). DMSO (1 ul) was added to Columns 11, 12, 23, 24, rows A-H for the maximum signal control and 1 ul of SAH, a known product and inhibitor of CARM1, was added to columns 11, 12, 23, 24, rows I-P for the minimum signal control. A cocktail (40 ul) containing the CARM1 enzyme was added by Multidrop Combi (Thermo-Fisher). The compounds were allowed to incubate with CARM1 for 30 min at room temperature, then a cocktail (10 ul) containing ^3H-SAM and peptide was added to initiate the reaction (final volume=51 ul). The final concentrations of the components were as follows: CARM1 was 0.25 nM, ^3H-SAM was 30 nM, peptide was 250 nM, SAH in the minimum signal control wells was 1 mM, and the DMSO concentration was 2%. The assays were stopped by the addition of non-radiolabeled SAM (10 ul) to a final concentration of 300 uM, which dilutes the ^3H-SAM to a level where its incorporation into the peptide substrate is no longer detectable. 50 ul of the reaction in the 384-well polypropylene plate was then transferred to a 384-well Flashplate and the biotinylated peptides were allowed to bind to the streptavidin surface for at least 1 hour before being washed once with 0.1% Tween20 in a Biotek ELx405 plate washer. The plates were then read in a PerkinElmer TopCount plate reader to measure the quantity of ^3H-labeled peptide bound to the Flashplate surface, measured as disintegrations per minute (dpm) or alternatively, referred to as counts per minute (cpm).
Where dpm=disintegrations per minute, cmpd=signal in assay well, and min and max are the respective minimum and maximum signal controls. […]

CNCCN(C)Cc1c[nH]nc1C#Cc1ccccc1 [Compound 3]
IC50: 1230 nM
